The source of these data is patent US4677108A, “4-oxo-pyrido[2,3-d]pyrimidinone derivatives” (Warner-Lambert Company, priority 1984, dated 1987).

The test system of data set [1] is isolated papillary muscles of the guinea-pig. The data set can be described thus: Isolated papillary muscles: changes in the contraction amplitude. The settings on record: field excitation 250/minute; for activation at 1 µM: at ED100, read-out: Δ% (percent change of contraction amplitude versus control) at ED100; for EC100: read-out: ED100 (effective concentration, maximal effect), contraction amplitude; for EC50: read-out: ED50 (effective concentration, semimaximal effect), contraction amplitude. The source says: Papillary muscles from the left ventricle of the guinea-pig are mounted, like isolated vessels, in an organ bath in a way to allow the measurement of isometric contractions. Electric excitation is achieved by means of field excitation at a frequency of 250/minute (duration of excitation 10 msec., amplitude supramaximal).
Changes in the contraction amplitude of isolated
papillary muscles of the guinea-pig (excitation
frequency 250/minute, duration of excitation 10 msec.,
excitation amplitude 10-20 V field excitation). IC =
inhibition concentration, ED = effective concentration
in mol/l. Indices 50 and 100 correspond to semi-
maximal and maximal effect. Δ% = percent change of
contraction amplitude versus control.

Data set [2] has as its system a. basilaris (arteria basilaris). The data set can be described thus: Isolated smooth muscle: inhibition of K+-depolarization contraction of vessel rings, a. basilaris. Further details: species or system rabbit. As to conditions: organ bath, mean diameter 0.5-1.0 mm, read-out: Concentration (IC50) effecting a semimaximal inhibition of the K+-depolarization contraction of vessel rings, a. basilaris. From the text: (§1) Of rabbits (vessel ring segments, a basilaris, a. coronaria, a. saphena) are mounted in an organ bath in a way to allow the measurement of isometric contractions. Contractile activity is elicited by a potassium depolarization in Tyrode's solution. This experimetnal set-up is a well known standard model for the identification of substances blocking the calcium channels opened during the potassium depolarization (Fleckenstein,Calcium Antagonism in Heart and Smooth Muscle, J. Wiley & Sons, 1983).
(§2) Concentrations (IC50, mol/l) of compounds
(§3) effecting a semimaximal inhibition of the K+-
(§4) depolarization contraction of vessel rings in the
(§5) organ bath. A. bas. = arteria basilaris, a. cor. =
(§6) arteria coronaria, a. saph. = arteria saphena of
(§7) the rabbit; mean diameter 0.5-1.0 mm.

Data set [3] relates to a. coronaria (arteria coronaria). Description: Isolated smooth muscle: inhibition of K+-depolarization contraction of vessel rings, a. coronaria. Further details: species or system rabbit. As to conditions: organ bath, mean diameter 0.5-1.0 mm, read-out: Concentration (IC50) effecting a semimaximal inhibition of the K+-depolarization contraction of vessel rings, a. coronaria.
From the text: as §1, §2, §3, §4, §5, §6, §7

Data set [4] concerns a. saphena (arteria saphena). The data set can be described thus: Isolated smooth muscle: inhibition of K+-depolarization contraction of vessel rings, a. saphena. Further details: species or system rabbit. The settings on record: Oryctolagus cuniculus, organ bath, mean diameter 0.5-1.0 mm, read-out: Concentration (IC50) effecting a semimaximal inhibition of the K+-depolarization contraction of vessel rings, a. saphena.
From the text: as §1, §2, §3, §4, §5, §6, §7

Data set [5] deals with rats anesthetized with inactin. Description: Anesthetized rat (inactin): blood pressure and heart rate. The data set is classed as in vivo. The settings on record: 100 mg/kg ID (n=3). The protocol: This test model using rats anesthetized with inactin served to test Example Number 1a in a dosage of 100 mg/kg ID (n=3). The heart rate remained unchanged whereas the blood pressure fell by 40% below the starting value (75 minutes PA).

Data set [6] deals with spontaneously hypertensive rats (SHR). Description: Spontaneously hypertensive rat: systolic blood pressure after oral administration. Type of data set: in vivo. The source says: This test model employing hypertension of genetic origin served to test Example Number 1(a) for its antihypertensive efficacy.
Effect of Example Number 1a on the systolic blood
pressure of spontaneously hypertensive rats (SHR)

The mark [7] stands for this setting: Cavia porcellus, 10 msec., 10-20 V, maximal effect.
[8] abbreviates: Cavia porcellus, 10 msec., 10-20 V, semimaximal effect.

As to `CCOC(=O)C1=C(C)Nc2nc[nH]c(=O)c2C1c1ccccc1` (racemic) [Example 1, (±)-3,4,5,8-Tetrahydro-7-methyl-4-oxo-5-phenylpyrido[2,3-d]pyrimidine-6-carboxylic acid ethyl ester], the inhibition at 100 µM in data set [1] (Cavia porcellus, at IC100, read-out: Δ% (percent change of contraction amplitude versus control) at IC100) worked out at 27%. The IC100 in data set [1] (Cavia porcellus, 10 msec., 10-20 V, maximal effect, read-out: IC100 (inhibition concentration, maximal effect), contraction amplitude) came to 100 µM. The IC50 was 20000 nM in data set [1] (Cavia porcellus, 10 msec., 10-20 V, semimaximal effect, read-out: IC50 (inhibition concentration, semimaximal effect), contraction amplitude); 8000 nM in data set [2]; 10000 nM in data set [3]; 7000 nM in data set [4]. In data set [1] (at IC50), the “Δ% (percent change of contraction amplitude versus control) at IC50” value is reported as -13%.

As for `CCOC(=O)C1=C(C)Nc2nc[nH]c(=O)c2C1c1ccccc1F` (racemic) [Example 1a, (±)-5-(2-Fluorophenyl)-3,4,5,8-tetrahydro-7-methyl-4-oxo-pyrido[2,3-d]pyrimidine-6-carboxylic acid ethyl ester], the activation at 1 µM in data set [1] (Cavia porcellus) was found to be 52%. Moreover, the EC100 in data set [1] (setting [7]) was 1 µM. Also, the EC50 in data set [1] (setting [8]) came to 15 nM. In addition, in data set [1], the “Δ% (percent change of contraction amplitude versus control) at ED50” value is “+26%”. Moreover, the IC50 amounted to 1800 nM in data set [2], 1500 nM in data set [3] and 1200 nM in data set [4]. Further, in data set [5], the heart rate result is given as “unchanged”. The “blood pressure fell below the starting value” in data set [5] (75 minutes PA) came out at 40%. The “Change of systol. blood pressure in percent” value (“Change … in percent” below) is reported as -11% in data set [6] (12.5 mg/kg oral, 30 min.); -4% in data set [6] (12.5 mg/kg oral, 120 min.); “+2%” in data set [6] (12.5 mg/kg oral, 240 min.); -1% in data set [6] (12.5 mg/kg oral, 24 h); -24% in data set [6] (25 mg/kg oral, 30 min.); -2% in data set [6] (25 mg/kg oral, 120 min.). The “Change … in percent” value was -1% in data set [6] (25 mg/kg oral, 240 min.); “+5%” in data set [6] (25 mg/kg oral, 24 h); -32% in data set [6] (50 mg/kg oral, 30 min.); -8% in data set [6] (50 mg/kg oral, 120 min.); “+1%” in data set [6] (50 mg/kg oral, 240 min.); “+4%” in data set [6] (50 mg/kg oral, 24 h). Also, the “Change … in percent” value in data set [6] (100 mg/kg oral, 30 min.) is recorded as -40%; in data set [6] (100 mg/kg oral, 120 min.), -19%; in data set [6] (100 mg/kg oral, 240 min.) it was “+2%”; in data set [6] (100 mg/kg oral, 24 h) it was -4%. Also, the “antihypertensive effect after oral administration” value in data set [6] (oral, result in words) is given as “good and, dose-dependent, lasting antihypertensive effect”.

Consider `CCOC(=O)C1=C(C)Nc2ncn(C(C)C)c(=O)c2C1c1ccccc1F` (racemic) [Example 3, (±)-5-(2-Fluorophenyl)-3,4,5,8-tetrahydro-3-isopropyl-7-methyl-4-oxo-pyrido[2,3-d]pyrimidine-6-carboxylic acid ethyl ester], for which, in data set [1] (Cavia porcellus), the activation at 1 µM came to 30%. Further, the EC100 in data set [1] (setting [7]) is 1 µM. For the same compound, the EC50 in data set [1] (setting [8]) is 22 nM. In data set [1], the “Δ% (percent change of contraction amplitude versus control) at ED50” value was “+15%”. Also, the IC50 in data set [2] is 20000 nM; in data set [3] it was 20000 nM; in data set [4] it was 9000 nM.

Consider `CCOC(=O)C1=C(C)Nc2ncn(C(C)C)c(=O)c2C1c1ccccc1` (racemic) [Example 3a, (±)-3,4,5,8-Tetrahydro-3-isopropyl-7-methyl-4-oxo-5-phenyl-pyrido[2,3-d]pyrimidine-6-carboxylic acid ethyl ester], for which the IC50 worked out at 40 nM in data set [2] and 45 nM in data set [3].

`CCOC(=O)C1=C(C)Nc2nc[nH]c(=O)c2C1c1ccccc1[N+](=O)[O-]` (racemic) [Example 1b, (±)-3,4,5,8-Tetrahydro-7-methyl-5-(2-nitrophenyl)-4-oxo-pyrido[2,3-d]pyrimidine-6-carboxylic acid ethyl ester]: the IC50 in data set [2] was ~400 nM; in data set [3], ~1000 nM.
